Molecular target: Endothelial lipase (EL) (Homo sapiens (Human), UniProt Q9Y5X9)
Assay: Endothelial lipase (EL) enzymatic assay with fluorescent substrate A10070 in DMPG vesicles
Type: biochemical
Protocol: Endothelial lipase (EL) and hepatic lipase (HL) activities were measured using a fluorescent substrate, A10070, (Invitrogen, CA) doped into an artificial vesicle containing DMPG (Avanti Polar Lipids) as the excipient. Vesicles were prepared by combining 571 μL of 29 mM DMPG in a 1:1 mixture of MeOH and CHCl3 with 2000 μL of 1 mM A10070 in a 1:1 mixture of MeOH and CHCl3. The mixture was dried under nitrogen in multiple vials then resuspended in 20 mL total volume of 50 mM HEPES pH 8.0 buffer containing 50 mM NaCl and 0.2 mM EDTA. The sample was allowed to sit at room temperature for 15 min and then was sonicated 3×4 mins on ice with a Branson Sonicator using duty cycle 1. This preparation provides vesicles with a mole fraction of 0.11 for the FRET substrate.
The enzymatic assay was measured using 384-well white Optiplates. Each well contained 20 μL of assay buffer (50 mM HEPES pH 8.0, 50 mM NaCl and 1 mM CaCl2) and 0.25 μL of a DMSO solution containing a compound of interest. EL or HL (10 μL) was added and allowed to incubate with the compound for 30 min at 37° C. The source of EL was conditioned media obtained from HT-1080 cells that were transformed using RAGE technology (Athersys) to overexpress endogenous EL, and HL was partially purified from conditioned media obtained from COS cells overexpressing HL. The reaction was started by the addition of 10 μL of a 1:10 dilution of vesicles. The final total reaction volume was […]. The reaction rates were measured on a Gemini plate reader with an excitation wavelength of 490 nm and an emission wavelength of 530 nm. Readings were taken over a period of 60 minutes, and the slope between 300 and 900 secs of the readout was used to calculate the rate of the reaction.

Chain of Endothelial lipase (EL) (Q9Y5X9 21-500): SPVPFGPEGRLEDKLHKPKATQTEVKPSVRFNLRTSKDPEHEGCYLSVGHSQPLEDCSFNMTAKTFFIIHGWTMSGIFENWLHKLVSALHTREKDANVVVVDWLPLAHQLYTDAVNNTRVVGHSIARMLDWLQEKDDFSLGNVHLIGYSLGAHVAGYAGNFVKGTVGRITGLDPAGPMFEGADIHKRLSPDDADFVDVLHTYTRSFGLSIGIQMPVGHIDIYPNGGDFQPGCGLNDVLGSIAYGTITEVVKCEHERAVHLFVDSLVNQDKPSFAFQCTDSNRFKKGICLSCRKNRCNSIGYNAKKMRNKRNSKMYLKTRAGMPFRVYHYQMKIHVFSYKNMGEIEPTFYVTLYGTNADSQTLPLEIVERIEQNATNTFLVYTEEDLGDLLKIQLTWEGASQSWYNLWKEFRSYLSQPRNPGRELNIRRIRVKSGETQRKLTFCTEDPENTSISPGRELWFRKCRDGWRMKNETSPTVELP

SMILES | IC50 [nM]
Cc1ncc(-c2ccc3nc(C(C(=O)NCC(=O)NC4CC4)S(=O)(=O)Cc4cccc(C#N)c4)sc3c2)cn1 (stereo not shown) [Example 21, 2-[(3-cyanophenyl)methanesulfonyl]-N-[(cyclopropyl-carbamoyl)methyl]-2-[6-(2-methylpyrimidin-5-yl)-1,3-benzothiazol-2-yl]acetamide] | 145
CC(C)n1cc(-c2cc3sc(C(C(=O)NCC(=O)NC4CC4)S(=O)(=O)C(C)C)nc3cc2F)ccc1=O (stereo not shown) [Example 22, N-[(cyclopropyl-carbamoyl)methyl]-2-{5-fluoro-6-[6-oxo-1-(propan-2-yl)-1,6-dihydropyridin-3-yl]-1,3-benzothiazol-2-yl}-2-(propane-2-sulfonyl) acetamide] | 37
COC(=O)N(C)c1ccc(-c2ccc3nc(C(C(=O)NCC(=O)NC4CC4)S(C)(=O)=O)sc3c2)cc1 (stereo not shown) [Example 23, methyl N-{4-[2-({[(cyclopropyl-carbamoyl)methyl]carbamoyl} (methanesulfonyl)methyl)-1,3-benzothiazol-6-yl]phenyl}-N-methylcarbamate] | 14
COC(=O)N(C)c1ccc(-c2ccc3nc(C(C(=O)NCC(=O)NC4CC4)S(=O)(=O)CCC(F)(F)F)sc3c2)cc1 (stereo not shown) [Example 24, methyl N-{4-[2-({[(cyclopropyl-carbamoyl)methyl]carbamoyl} (3,3,3-trifluoropropane-sulfonyl)methyl)-1,3-benzothiazol-6-yl]phenyl}-N-methylcarbamate] | 6
COCCS(=O)(=O)C(C(=O)NCC(=O)NC1CC1)c1nc2ccc(-c3ccc(N(C)C(=O)OC)cc3)cc2s1 (stereo not shown) [Example 25, methyl N-{4-[2-({[(cyclopropyl-carbamoyl)methyl]carbamoyl}(2-methoxyethane-sulfonyl)methyl)-1,3-benzothiazol-6-yl]phenyl}-N-methylcarbamate] | 7
COC(=O)Nc1ccc(-c2ccc3nc(C(C(=O)NCC(=O)NC4CC4)S(=O)(=O)CCC(F)(F)F)sc3c2)c(C)c1 (stereo not shown) [Example 26] | 7
COCCS(=O)(=O)C(C(=O)NCC(=O)NC1CC1)c1nc2ccc(-c3ccc(N(C)C(C)=O)cc3)cc2s1 (stereo not shown) [Example 27, N-[(cyclopropyl-carbamoyl)methyl]-2-(2-methoxy-ethanesulfonyl)-2-{6-[4-(N-methylacetamido)phenyl]-1,3-benzothiazol-2-yl}acetamide] | 58
CC(=O)N(C)c1ccc(-c2ccc3nc(C(C(=O)NCC(=O)NC4CC4)S(=O)(=O)CCC(F)(F)F)sc3c2)cc1 (stereo not shown) [Example 28, N-[(cyclopropyl-carbamoyl)methyl]-2-{6-[4-(N-methylacetamido)phenyl]-1,3-benzothiazol-2-yl}-2-(3,3,3-trifluoropropane-sulfonyl) acetamide] | 54
COC(=O)Nc1ccc(-c2ccc3nc(C(C(=O)NCC(=O)NC4CC4)S(C)(=O)=O)sc3c2)c(C)c1 (stereo not shown) [Example 29, methyl N-{4-[2-({[(cyclopropyl-carbamoyl)methyl]carbamoyl} (methanesulfonyl)methyl)-1,3-benzothiazol-6-yl]-3-methylphenyl} carbamate] | 20
COCCS(=O)(=O)C(C(=O)NCC(=O)NC1CC1)c1nc2ccc(-c3ccc(NC(=O)OC)cc3C)cc2s1 (stereo not shown) [Example 30, methyl N-{4-[2-({[(cyclopropy-lcarbamoyl)methyl]carbamoyl}(2-methoxyethane-sulfonyl)methyl)-1,3-benzothiazol-6-yl]-3-methylphenyl} carbamate] | 21
CC(=O)N(C)c1ccc(-c2cc3sc(C(C(=O)NCC(=O)NC4CC4)S(C)(=O)=O)nc3cc2F)cc1 (stereo not shown) [Example 31, N-[(cyclopropyl-carbamoyl)methyl]-2-{5-fluoro-6-[4-(N-methylacetamido)phenyl]-1,3-benzothiazol-2-yl}-2-methanesulfonyl-acetamide] | 11
COCCS(=O)(=O)C(C(=O)NCC(=O)NC1CC1)c1nc2cc(F)c(-c3ccc(N(C)C(=O)OC)cc3)cc2s1 (stereo not shown) [Example 32, methyl N-{4-[2-({[(cyclopropyl-carbamoyl)methyl]carbamoyl}(2-methoxyethane-sulfonyl)methyl)-5-fluoro-1,3-benzothiazol-6-yl]phenyl}-N-methylcarbamate] | 6
COC(=O)N(C)c1ccc(-c2cc3sc(C(C(=O)NCC(=O)NC4CC4)S(=O)(=O)CCC(F)(F)F)nc3cc2F)cc1 (stereo not shown) [Example 33, methyl N-{4-[2-({[(cyclopropyl-carbamoyl)methyl]carbamoyl}(3,3,3-trifluoropropane-sulfonyl)methyl)-5-fluoro-1,3-benzothiazol-6-yl]phenyl}-N-methylcarbamate] | 4
COC(=O)Nc1ccc(-c2cc3sc(C(C(=O)NCC(=O)NC4CC4)S(C)(=O)=O)nc3cc2F)c(C)c1 (stereo not shown) [Example 34, methyl N-{4-[2-({[(cyclopropyl-carbamoyl)methyl]carbamoyl} (methanesulfonyl)methyl)-5-fluoro-1,3-benzothiazol-6-yl]-3-methylphenyl} carbamate] | 4
COCCS(=O)(=O)C(C(=O)NCC(=O)NC1CC1)c1nc2cc(F)c(-c3ccc(NC(=O)OC)cc3C)cc2s1 (stereo not shown) [Example 35, methyl N-{4-[2-({[(cyclopropyl-carbamoyl)methyl]carbamoyl}(2-methoxyethane-sulfonyl)methyl)-5-fluoro-1,3-benzothiazol-6-yl]-3-methylphenyl} carbamate] | 8
COCCOC(=O)Nc1ccc(-c2cc3sc(C(C(=O)NCC(=O)NC4CC4)S(C)(=O)=O)nc3cc2F)cn1 (stereo not shown) [Example 36, 2-methoxyethyl N-{5-[2-({[(cyclopropyl-carbamoyl)methyl]carbamoyl} (methanesulfonyl)methyl)-5-fluoro-1,3-benzothiazol-6-yl]pyridin-2-yl}carbamate] | 11
COCCOC(=O)Nc1ccc(-c2cc3sc(C(C(=O)NCC(=O)NC4CC4)S(=O)(=O)CCOC)nc3cc2F)cn1 (stereo not shown) [Example 37, 2-methoxyethyl N-{5-[2-({[(cyclopropyl-carbamoyl)methyl]carbamoyl}(2-methoxyethane-sulfonyl)methyl)-5-fluoro-1,3-benzothiazol-6-yl]pyridin-2-yl} carbamate] | 5
CC(C)S(=O)(=O)C(C(=O)NCC(=O)NC1CC1)c1nc2cc(F)c(-c3ccc(NC(=O)OCc4ccccc4)cc3)cc2s1 (stereo not shown) [Example 38, benzyl N-{4-[2-({[(cyclopropyl-carbamoyl)methyl]carbamoyl} (propane-2-sulfonyl)methyl)-5-fluoro-1,3-benzothiazol-6-yl]phenyl} carbamate] | 2
CS(=O)(=O)C(C(=O)NCC(=O)NC1CC1)c1nc2cc(F)c(-c3cccc(Cl)c3)cc2s1 (stereo not shown) [Example 39, 2-[6-(3-chlorophenyl)-5-fluoro-1,3-benzothiazol-2-yl]-N-[(cyclopropyl-carbamoyl)methyl]-2-methanesulfonyl-acetamide] | 3
COCCS(=O)(=O)C(C(=O)NCC(=O)NC1CC1)c1nc2cc(F)c(-c3cccc(Cl)c3)cc2s1 (stereo not shown) [Example 40, 2-[6-(3-chlorophenyl)-5-fluoro-1,3-benzothiazol-2-yl]-N-[(cyclopropyl-carbamoyl)methyl]-2-(2-methoxyethane-sulfonyl)acetamide] | 3
CS(=O)(=O)C(C(=O)NCC(=O)NC1CC1)c1nc2cc(F)c(-c3ccc(C(=O)NCCC#N)cc3)cc2s1 (stereo not shown) [Example 41, N-(2-cyanoethyl)-4-[2-({[(cyclopropyl-carbamoyl)methyl]carbamoyl} (methanesulfonyl)methyl)-5-fluoro-1,3-benzothiazol-6-yl]benzamide] | 5
COCCS(=O)(=O)C(C(=O)NCC(=O)NC1CC1)c1nc2cc(F)c(-c3ccc(C(=O)NCCC#N)cc3)cc2s1 (stereo not shown) [Example 42, N-(2-cyanoethyl)-4-[2-({[(cyclopropyl-carbamoyl)methyl]carbamoyl}(2-methoxyethane-sulfonyl)methyl)-5-fluoro-1,3-benzothiazol-6-yl] benzamide] | 7
CS(=O)(=O)Nc1ccc(-c2cc3sc(C(C(=O)NCC(=O)NC4CC4)S(=O)(=O)CCC(F)(F)F)nc3cc2F)cc1 (stereo not shown) [Example 43, N-[(cyclopropyl-carbamoyl)methyl]-2-[5-fluoro-6-(4-methanesulfon-amidophenyl)-1,3-benzothiazol-2-yl]-2-(3,3,3-trifluoropropane-sulfonyl) acetamide] | 37
N#CCCNC(=O)c1ccc(-c2cc3sc(C(C(=O)NCC(=O)NC4CC4)S(=O)(=O)CCC(F)(F)F)nc3cc2F)cc1 (stereo not shown) [Example 44, N-(2-cyanoethyl)-4-[2-({[(cyclopropyl-carbamoyl)methyl]carbamoyl}(3,3,3-trifluoropropane-sulfonyl)methyl)-5-fluoro-1,3-benzothiazol-6-yl] benzamide] | 3
CCS(=O)(=O)C(C(=O)NCC(=O)NC1CC1)c1nc2cc(F)c(-c3ccc(NC(=O)OCc4ccccc4)cc3)cc2s1 (stereo not shown) [Example 45, benzyl N-{4-[2-({[(cyclopropyl-carbamoyl)methyl]carbamoyl} (ethanesulfonyl)methyl)-5-fluoro-1,3-benzothiazol-6-yl]phenyl} carbamate] | 3

Source: patent US10173991B2, “Sulfone amide linked benzothiazole inhibitors of endothelial lipase” (BRISTOL-MYERS SQUIBB COMPANY, priority 2014, dated 2019)
